The test deals with type IV phosphodiesterase. Kind of test: Type IV phosphodiesterase inhibiting activity. Format: biochemical, human. As to conditions: U937 type IV phosphodiesterase fraction, 0.28 μM cAMP, pH 7.5, 30° C., 30 minutes; read-out: PDEIV-IC50. The procedure:
The following assay was used to evaluate the ability of the compound of the present invention to suppress type IV phosphodiesterase, according to Biochemical. Pharmacol. 48 (6), 1219-1223 (1994).
1) Type IV phosphodiesterase activity fractions were prepared as follows. Namely, human histiocytic lymphoma cell line U937 was cultured in an RPMI1640 medium containing 10% fetal calf serum to obtain 10^9 cells of U937. The cells were recovered by centrifugation and suspended in 40 ml of buffer A (20 mM bis-tris, 5 mM 2-mercaptoethanol, 2 mM benzamidine, 2 mM EDTA, 0.1 mM 4-(2-aminoethyl)benzensulfonyl hydrochloride, 50 mM sodium acetate, pH=6.5). The cells were broken by a sonication and centrifuged (4° C., 10,000 G, 10 minutes) to obtain a supernatant. This was filtered by a 0.45 μm filter to obtain the soluble fraction.
2) The soluble fraction obtained was applied into a 1×10 cm DEAE Sepharose column equalibrated with the buffer A. 120 ml of the buffer A containing a linear gradient solution of 0.05 to 1M sodium acetate was used to separate the phosphodiesterase and recover 24 5-ml fractions. Each of the fractions was measured for the cAMP phosphodiesterase activity.
3) The test compound was reacted at a desired concentration in a reaction mixture containing 20 mM tris-HCl (pH 7.5), 1 mM MgCl2, 100 μM EDTA, 330 μg/ml calf serum albumin, 10 μg/ml 5'-nucleotidase, 0.4 μCi ^3 H-cAMP (0.28 μM cAMP) and the type IV phosphodiesterase stored solution at 30° C. for 30 minutes. QAE-Sephadex suspended in 10 mM of hepes-Na (pH -7.0) was added to the reaction mixture which was then allowed to stand for 5 minutes, then the supernatant was obtained, QAE-Sephadex was further added, to the supernatant, and was allowed to stand for 5 minutes, then the supernatant was obtained and measured for radioactivity.

Structures are written as SMILES. Where a name gives a salt, the structure may show the parent alone.

As for `O=C(O[C@H]1CC[C@H](n2cc(C(=O)Nc3c(Cl)cncc3Cl)c(=O)c3cccnc32)CC1)c1ccccc1` [Example 130, trans-4-[3-{[(3,5-dichloro-4-pyridinyl)amino]carbonyl}-4-oxo[1,8]naphthylidin-1(4H)-yl]cyclohexylbenzoate], the half-maximal inhibitory concentration (IC50) stood at 50 nM.

`CCNC(=O)N[C@H]1CC[C@H](n2cc(C(=O)Nc3c(Cl)cncc3Cl)c(=O)c3cccnc32)CC1` [Example 71, N-(3,5-dichloropyridin-4-yl)-1-[trans-4-(ethylaminocarbonylamino)cyclohexyl]-1,4-dihydro[1,8]naphthylidin-4-one-3-carboxamide]: the IC50 turned out to be 0.5 nM.

Take `O=C(Nc1c(Cl)cncc1Cl)c1cn(C2CCCC2)c2ncccc2c1=O` [Example 150, N-(3,5-dichloropyridin-4-yl)-1-cyclopentyl-1,4-dihydro[1,8]naphthylidin-4-one-3-carboxamide]: the IC50 stood at 0.3 nM.

Turning to `O=C1CCC(n2cc(C(=O)Nc3ccncc3)c(=O)c3cccnc32)CC1` [Example 61, N-(4-pyridyl)-1-(4-oxocyclohexyl)-1,4-dihydro[1,8]naphthylidin-4-one-3-carboxamide], the IC50 was determined as 180 nM.

With `O=C(Nc1cccnc1)c1cn(C2CC2)c2ncccc2c1=O` [Example 156, N-(3-pyridyl)-1-cyclopropyl-1,4-dihydro[1,8]naphthylidin-4-one-3-carboxamide], the IC50 was found to be 150 nM.

As to `CC(=O)N[C@H]1CC[C@H](n2cc(C(=O)Nc3c(Cl)cncc3Cl)c(=O)c3cccnc32)CC1` [Example 70, N-(3,5-dichloropyridin-4-yl)-1-[trans-4-(acetylamino)cyclohexyl]-1,4-dihydro[1,8]naphthylidin-4-one-3-carboxamide], the concentration for half-maximal inhibition (IC50) amounted to 3.9 nM.

For `CC(C)(C)C(=O)O[C@H]1CC[C@H](n2cc(C(=O)Nc3c(Cl)cncc3Cl)c(=O)c3cccnc32)CC1` [Example 128, trans-4-[3-{[(3,5-dichloro-4-pyridinyl)amino]carbonyl}-4-oxo[1,8]naphthylidin-1(4H)-yl]cyclohexylpivalate], the IC50 was 5.7 nM.

`O=C(Nc1ccncc1)c1cn(C2CCC2)c2ncccc2c1=O` [Example 144, N-(4-pyridyl)-1-cyclobutyl-1,4-dihydro[1,8]naphthylidin-4-one-3-carboxamide]: the IC50 turned out to be 120 nM.

For `N[C@H]1CC[C@H](n2cc(C(=O)Nc3c(Cl)cncc3Cl)c(=O)c3cccnc32)CC1` [Example 69, N-(3,5-dichloropyridin-4-yl)-1-(trans-4-aminocyclohexyl)-1,4-dihydro[1,8]naphthylidin-4-one-3-carboxamide acetate], the IC50 was 210 nM.

With `CCN(CC)Cc1ccc(C(=O)O[C@H]2CC[C@H](n3cc(C(=O)Nc4c(Cl)cncc4Cl)c(=O)c4cccnc43)CC2)cc1` [Example 159, trans-4-[3-{[(3,5-dichloro-4-pyridinyl)amino]carbonyl}-4-oxo[1,8]naphthylidin-1(4H)-yl]cyclohexyl 4-(diethylaminomethyl)benzoate hydrochloride], the IC50 was found to be 4 nM.

As to `O=C(NC1CCC1)c1cn([C@H]2CC[C@H](O)CC2)c2ncccc2c1=O` [Example 164], the IC50 was found to be 400 nM.

On to `CCC(=O)O[C@H]1CC[C@H](n2cc(C(=O)Nc3c(Cl)cncc3Cl)c(=O)c3cccnc32)CC1` [Example 129, trans-4-[3-{[(3,5-dichloro-4-pyridinyl)amino]carbonyl}-4-oxo[1,8]naphthylidin-1(4H)-yl]cyclohexylpropionate], for which the IC50 stood at 9.3 nM.

With `O=C(Nc1cccnc1)c1cn([C@H]2CC[C@H](O)CC2)c2ncccc2c1=O` [Example 172, N-(3-pyridyl)-1-(trans-4-hydroxycyclohexyl)-1,4-dihydro[1,8]naphthylidin-4-one-3-carboxamide], the IC50 amounted to 360 nM.

In the case of `O=C(Nc1ccncc1)c1cn([C@@H]2CCOC2)c2ncccc2c1=O` [Example 38, N-(4-pyridyl)-1-[(R)-tetrahydro-3-furanyl]-1,4-dihydro[1,8]naphthylidin-4-one-3-carboxamide], the IC50 came to 330 nM.

`CC1(O)CCC(n2cc(C(=O)Nc3c(Cl)cncc3Cl)c(=O)c3cccnc32)CC1` (centres unmarked) [Example 192, N-(3,5-dichloropyridin-4-yl)-1-(4-hydroxy-4-methylcyclohexyl)-1,4-dihydro[1,8]naphthylidin-4-one-3-carboxamide]: the IC50 is 4.1 nM.

Regarding `CC(=O)O[C@H]1CC[C@H](n2cc(C(=O)Nc3c(Cl)cncc3Cl)c(=O)c3cccnc32)CC1` [Example 197, trans-4-[3-{[(3,5-dichloropyridin-4-yl)amino]carbonyl}-1,4-dihydro[1,8]naphthylidin-1-yl]cyclohexyl acetate], the IC50 was 6.2 nM.

For the compound `Cc1cc(NC(=O)c2cn([C@H]3CC[C@H](O)CC3)c3ncccc3c2=O)on1` [Example 178, N-(3-methylisoxazol-5-yl)-1-(trans-4-hydroxycyclohexyl)-1,4-dihydro[1,8]naphthylidin-4-one-3-carboxamide], the IC50 is 3300 nM.

As to `CCOC(=O)N1CCC(n2cc(C(=O)Nc3c(Cl)cncc3Cl)c(=O)c3cccnc32)CC1` [Example 62, N-(3,5-dichloropyridin-4-yl)-1-(1-ethoxycarbonylpiperidin-4-yl)-1,4-dihydro[1,8]naphthylidin-4-one-3-carboxamide], the IC50 turned out to be 2.3 nM.

Consider `O=C(NC1CCCC1)c1cn([C@H]2CC[C@H](O)CC2)c2ncccc2c1=O` [Example 168, N-cyclopentyl-1-(trans-4-hydroxycyclohexyl)-1,4-dihydro[1,8]naphthylidin-4-one-3-carboxamide], for which the IC50 amounted to 1500 nM.

For the compound `Cc1cnccc1NC(=O)c1cn([C@H]2CC[C@H](O)CC2)c2ncccc2c1=O` [Example 174, N-(3-methylpyridin-4-yl)-1-(trans-4-hydroxycyclohexyl)-1,4-dihydro[1,8]naphthylidin-4-one-3-carboxamide], the IC50 was 130 nM.

As to `COC(=O)N1CCC(n2cc(C(=O)Nc3c(Cl)cccc3Cl)c(=O)c3cccnc32)C1` (racemic) [Example 4, (±)-N-(2,6-dichlorophenyl)-1-(1-methoxycarbonylpyrrolidin-3-yl)-1,4-dihydro[1,8]naphthyridin-4-one-3-carboxamide], the IC50 is 60 nM.

Regarding `O=C(NC1CC1)c1cn([C@H]2CC[C@H](O)CC2)c2ncccc2c1=O` [Example 170, N-cyclopropyl-1-(trans-4-hydroxycyclohexyl)-1,4-dihydro[1,8]naphthylidin-4-one-3-carboxamide], the IC50 turned out to be 990 nM.

`O=C(O[C@H]1CC[C@H](n2cc(C(=O)Nc3c(Cl)cncc3Cl)c(=O)c3cccnc32)CC1)c1cccc(CN2CCOCC2)c1` [Example 162, trans-4-[3-{[(3,5-dichloro-4-pyridinyl)amino]carbonyl}-4-oxo[1,8]naphthylidin-1(4H)-yl]cyclohexyl 3-(morpholinomethyl)benzoate hydrochloride]: the IC50 was determined as 6 nM.

`O=C(Nc1c(Cl)cncc1Cl)c1cn([C@@H]2CC[C@@H](O)C2)c2ncccc2c1=O` [Example 79, N-(3,5-dichloropyridin-4-yl)-1-[(1R,3R)-3-(hydroxy)cyclopentyl]-1,4-dihydro[1,8]naphthylidin-4-one-3-carboxamide]: the IC50 amounted to 1.2 nM.

For `O=C(Nc1ccncc1)c1cn([C@H]2CC[C@@H](O)CC2)c2ncccc2c1=O` [Example 115, N-(4-pyridyl)-1-(cis-4-hydroxycyclohexyl)-1,4-dihydro[1,8]naphthylidin-4-one-3-carboxamide], the IC50 came to 210 nM.

As for `O=C(Nc1c(Cl)cncc1Cl)c1cn(C2CCC2)c2ncccc2c1=O` [Example 145, N-(3,5-dichloropyridin-4-yl)-1-cyclobutyl-1,4-dihydro[1,8]naphthylidin-4-one-3-carboxamide], the IC50 worked out at 8.3 nM.

For `CS(=O)(=O)N[C@H]1CC[C@H](n2cc(C(=O)Nc3c(Cl)cncc3Cl)c(=O)c3cccnc32)CC1` [Example 72, N-(3,5-dichloropyridin-4-yl)-1-[trans-4-(methanesulfonylamino)cyclohexyl]-1,4-dihydro[1,8]naphthylidin-4-one-3-carboxamide], the IC50 worked out at 110 nM.

`CC1(O)CCC(n2cc(C(=O)Nc3ccncc3)c(=O)c3cccnc32)CC1` (centres unmarked) [Example 194, N-(4-pyridinyl)-1-(4-hydroxy-4-methylcyclohexyl)-1,4-dihydro[1,8]naphthylidin-4-one-3-carboxamide]: the IC50 came out at 960 nM.

On to `Cc1cnccc1NC(=O)c1cn(C2CC2)c2ncccc2c1=O` [Example 157, N-(3-methylpyridin-4-yl)-1-cyclopropyl-1,4-dihydro[1,8]naphthylidin-4-one-3-carboxamide], for which the IC50 worked out at 130 nM.

Values taken from patent publication US6331548A, “1-cycloalkyl-1,8-naphthyridin-4-one derivative as type IV phosphodiesterase inhibitor” (Suntory Limited, priority 1998, dated 2001).
